Measurements as given in patent publication US9951064B2, “Azaindazole compounds as inhibitors of T790M containing EGFR mutants” (Genentech, Inc., priority 2013, dated 2018).

Experiments:
EGFR del746-750 T790M = target: T1, EGFR del746-750 T790M (Homo sapiens, UniProt P00533, DEL746-750/T790M); experiment: EGFR del746-750 T790M biochemical assay (Caliper mobility shift); conditions: 5 μM ATP; apparent Ki (Morrison fit) converted by Cheng-Prusoff, Km of ATP 2.1 μM; read-out: EGFR(T790M/d746-750) Ki
T1 construct: purchased Carna Biosciences 08-528
Outline: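 Caliper mobility-shift read-out, with product electrophoretically resolved from substrate and measured. Reactions were quenched with 80 mM EDTA after 30 min at 22 °C.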

EGFR T790M L858R = target: T2, EGFR T790M L858R (Homo sapiens, UniProt P00533, L858R/T790M); experiment: EGFR T790M L858R biochemical assay (Caliper mobility shift); conditions: 5 μM ATP; apparent Ki (Morrison fit) converted by Cheng-Prusoff, Km of ATP 1.3 μM
T2 construct: purchased Life Technologies PV4879
Outline: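 Caliper mobility-shift read-out, electrophoretic separation of substrate from product, after a 30-minute kinase reaction at 22 °C. EDTA at 80 mM terminates each reaction.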

[1] = system: H1975 (EGFR T790M/L858R) cell proliferation; experiment: H1975 proliferation assay (Cell Titer-Glo); format: cell-based; conditions: Homo sapiens, NCI-H1975, 72 h, NCI-H1975 cells, 72 hour incubation, read-out: H1975 antiproliferative EC50
Experimental: H1975 Proliferation Assays
All cell culture reagents were purchased from Invitrogen/Gibco. Cells are cultured at 37° C. at 5% CO2 and split as recommended by ATCC.

[2] = target: T3, phosphor-EGFR in H1975(L585R/T790M) mutant EGFR expressing cells (Homo sapiens, UniProt P00533, L858R/T790M); experiment: H1975 pEGFR MSD cellular assay; format: cell-based; conditions: NCI-H1975 cells, serum starved, 1 hour compound incubation, pEGFR Tyr1068 MSD; read-out: HI975 pEGFR EC50
T3 construct: host or cells: NCI-H1975
Outline: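 Phospho-EGFR read by MSD electrochemiluminescence: capture with anti-pEGFR antibody (overnight, 4° C), detection with SULFO-TAG anti-total EGFR (1 hour, room temperature). Before lysis, H1975 cells starved of serum overnight got compound for 1 hour at 37° C, 0.5% DMSO final. EC50 via four-parameter logistic regression of percent inhibition.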

T2 sequence (P00533 25-1210 T790M/L858R): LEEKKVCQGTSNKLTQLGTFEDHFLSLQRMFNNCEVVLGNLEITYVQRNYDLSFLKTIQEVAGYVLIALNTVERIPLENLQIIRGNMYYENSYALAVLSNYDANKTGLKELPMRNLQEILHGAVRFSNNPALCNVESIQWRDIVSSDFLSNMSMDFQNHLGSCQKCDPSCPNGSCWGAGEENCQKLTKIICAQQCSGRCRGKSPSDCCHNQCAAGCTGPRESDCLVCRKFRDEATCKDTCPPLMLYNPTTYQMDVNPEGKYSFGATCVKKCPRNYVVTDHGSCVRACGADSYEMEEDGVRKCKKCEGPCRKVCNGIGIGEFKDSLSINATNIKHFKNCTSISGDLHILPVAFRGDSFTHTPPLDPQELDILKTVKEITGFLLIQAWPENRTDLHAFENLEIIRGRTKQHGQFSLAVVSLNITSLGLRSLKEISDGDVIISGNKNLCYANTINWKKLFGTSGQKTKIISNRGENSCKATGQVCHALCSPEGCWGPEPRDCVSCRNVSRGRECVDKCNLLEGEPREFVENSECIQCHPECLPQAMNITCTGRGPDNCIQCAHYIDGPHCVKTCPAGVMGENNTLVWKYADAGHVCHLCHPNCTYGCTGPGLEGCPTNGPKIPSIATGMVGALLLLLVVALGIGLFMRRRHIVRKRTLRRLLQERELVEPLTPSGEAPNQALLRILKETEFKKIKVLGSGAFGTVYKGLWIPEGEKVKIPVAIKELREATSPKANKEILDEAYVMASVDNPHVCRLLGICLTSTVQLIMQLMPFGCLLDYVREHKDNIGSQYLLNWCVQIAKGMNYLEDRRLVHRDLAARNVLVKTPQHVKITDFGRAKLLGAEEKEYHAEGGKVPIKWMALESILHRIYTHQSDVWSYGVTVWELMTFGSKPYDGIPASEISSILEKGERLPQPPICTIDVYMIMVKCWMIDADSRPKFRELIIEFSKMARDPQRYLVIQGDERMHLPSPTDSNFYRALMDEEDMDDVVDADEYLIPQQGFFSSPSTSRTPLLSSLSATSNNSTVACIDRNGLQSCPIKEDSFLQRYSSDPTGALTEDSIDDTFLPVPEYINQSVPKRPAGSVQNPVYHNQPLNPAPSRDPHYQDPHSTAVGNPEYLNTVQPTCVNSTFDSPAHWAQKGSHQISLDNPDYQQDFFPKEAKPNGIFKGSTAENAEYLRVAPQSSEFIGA
T3 sequence (P00533 25-1210 T790M/L858R): as above
T1 sequence (P00533 with tags, fused parts or gaps DEL746-750/T790M limits assumed): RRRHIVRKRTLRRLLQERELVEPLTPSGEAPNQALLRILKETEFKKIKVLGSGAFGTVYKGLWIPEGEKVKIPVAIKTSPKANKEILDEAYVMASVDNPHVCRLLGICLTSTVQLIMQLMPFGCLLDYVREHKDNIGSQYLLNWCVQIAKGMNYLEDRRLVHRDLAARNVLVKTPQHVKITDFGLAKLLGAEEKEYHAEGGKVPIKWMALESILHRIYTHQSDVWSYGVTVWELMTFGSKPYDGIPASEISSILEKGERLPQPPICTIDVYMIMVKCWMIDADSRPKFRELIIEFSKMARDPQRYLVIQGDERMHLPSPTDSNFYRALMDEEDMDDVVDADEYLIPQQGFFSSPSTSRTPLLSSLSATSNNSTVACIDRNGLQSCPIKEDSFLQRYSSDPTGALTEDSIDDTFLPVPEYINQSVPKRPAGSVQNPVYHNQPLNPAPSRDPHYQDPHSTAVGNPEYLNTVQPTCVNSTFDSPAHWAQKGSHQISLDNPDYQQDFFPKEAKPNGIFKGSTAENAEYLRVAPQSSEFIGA

Ki (EGFR del746-750 T790M) [nM]	Ki (EGFR T790M L858R) [nM]	EC50 [1] [nM]	EC50 [2] [nM]	Structure (SMILES)
0.5	0.7	158	17.9	CC(C)n1nc(N2CCC2)c2cnc(Nc3ccnc(-c4cnn(S(=O)(=O)C5CC5)c4)n3)cc21 [Example 54, 3-(azetidin-1-yl)-N-(2-(1-(cyclopropylsulfonyl)-1H-pyrazol-4-yl)pyrimidin-4-yl)-1-isopropyl-1H-pyrazolo[4,3-c]pyridin-6-amine]
0.5	< 0.6	738	92.1	CC(C)n1nc(N2CCNC(=O)C2)c2cnc(Nc3ccnc(-c4cnn(S(=O)(=O)C5CC5)c4)n3)cc21 [Example 59, 4-(6-(2-(1-(cyclopropylsulfonyl)-1H-pyrazol-4-yl)pyrimidin-4-ylamino)-1-isopropyl-1H-pyrazolo[4,3-c]pyridin-3-yl)piperazin-2-one]
0.5	< 0.6	271	18.5	CC(C)n1nc(N2CC(CO)C2)c2cnc(Nc3ccnc(-c4cnn(S(=O)(=O)C5CC5)c4)n3)cc21 [Example 63, (1-(6-(2-(1-(cyclopropylsulfonyl)-1H-pyrazol-4-yl)pyrimidin-4-ylamino)-1-isopropyl-1H-pyrazolo[4,3-c]pyridin-3-yl)azetidin-3-yl)methanol]
13.2	4.7	785	256	CC[C@H](C)n1nc(N2CC3(COC3)C2)c2cnc(Nc3ccnc(OCC(C)(C)S(C)(=O)=O)n3)cc21 [Example 71, [1-((S)-sec-Butyl)-3-(2-oxa-6-azaspiro[3.3]hept-6-yl)-1H-pyrazolo[4,3-c]pyridin-6-yl]-[2-(2-methanesulfonyl-2-methylpropoxy)pyrimidin-4-yl]amine]
0.5	0.7	206	28.1	CC(C)n1nc(N2CCOC2=O)c2cnc(Nc3ccnc(-c4cnn(S(=O)(=O)C5CC5)c4)n3)cc21 [Example 72, 3-(6-(2-(1-(Cyclopropylsulfonyl)-1H-pyrazol-4-yl)pyrimidin-4-ylamino)-1-isopropyl-1H-pyrazolo[4,3-c]pyridin-3-yl)oxazolidin-2-one]
3.1	3.3	1210	124	CC(C)n1nc(N2CC3CCC(C2)O3)c2cnc(Nc3ccnc(-c4cnn(S(=O)(=O)C5CC5)c4)n3)cc21 [Example 73, 3-(8-Oxa-3-azabicyclo[3.2.1]octan-3-yl)-N-(2-(1-(cyclopropylsulfonyl)-1H-pyrazol-4-yl)pyrimidin-4-yl)-1-isopropyl-1H-pyrazolo[4,3-c]pyridin-6-amine]
106	129	4620	9260	CC(C)n1nc(NC(C)(C)C)c2cnc(Nc3ccnc(-c4cnn(S(=O)(=O)C5CC5)c4)n3)cc21 [Example 74, N^3-tert-Butyl-N^6-(2-(1-(cyclopropylsulfonyl)-1H-pyrazol-4-yl)pyrimidin-4-yl)-1-isopropyl-1H-pyrazolo[4,3-c]pyridine-3,6-diamine]
13.8	5.1	1180	752	CC(C)n1nc(N2CCN(C)C2=O)c2cnc(Nc3ccnc(N4CCC(O)C(F)C4)n3)cc21 (stereo not drawn) [Example 76, 1-(6-(2-(cis-3-Fluoro-4-hydroxypiperidin-1-yl)pyrimidin-4-ylamino)-1-isopropyl-1H-pyrazolo[4,3-c]pyridin-3-yl)-3-methylimidazolidin-2-one]
1.2	1.4	289	108	CC(C)n1nc(N2CC(C)(O)C2)c2cnc(Nc3ccnc(-c4cnn(S(=O)(=O)C5CC5)c4)n3)cc21 [Example 82, 1-(6-(2-(1-(Cyclopropylsulfonyl)-1H-pyrazol-4-yl)pyrimidin-4-ylamino)-1-isopropyl-1H-pyrazolo[4,3-c]pyridin-3-yl)-3-methylazetidin-3-ol]
1.2	1.3	> 10000	21.6	CC(C)n1nc(N2CCN(C)C2=O)c2cnc(Nc3ccnc(-c4cnn(S(=O)(=O)C5CC5)c4)n3)cc21 [Example 83, 1-(6-(2-(1-(Cyclopropylsulfonyl)-1H-pyrazol-4-yl)pyrimidin-4-ylamino)-1-isopropyl-1H-pyrazolo[4,3-c]pyridin-3-yl)-3-methylimidazolidin-2-one]
20.5	6.7	> 10000	2140	CC(C)n1nc(N2CC(C(C)(C)C(N)=O)C2)c2cnc(Nc3ccnc(N4CCC(C)(O)CC4)n3)cc21 [Example 84, 2-(1-(6-(2-(4-Hydroxy-4-methylpiperidin-1-yl)pyrimidin-4-ylamino)-1-isopropyl-1H-pyrazolo[4,3-c]pyridin-3-yl)azetidin-3-yl)-2-methylpropanamide]
15.5	5.5	1330	308	CC(C)n1nc(N2CC(O)C(F)(F)C2)c2cnc(Nc3ccnc(N4CCC(C)(O)CC4)n3)cc21 (centres unmarked) [Example 85, 1-(4-(3-(3,3-Difluoro-4-hydroxypyrrolidin-1-yl)-1-isopropyl-1H-pyrazolo[4,3-c]pyridin-6-ylamino)pyrimidin-2-yl)-4-methylpiperidin-4-ol]
29.1	13.3	> 10000	1940	CC(C)n1nc(N2CC(N)CC2=O)c2cnc(Nc3ccnc(N4CCC(C)(O)CC4)n3)cc21 (centres unmarked) [Example 86, 4-Amino-1-(6-(2-(4-hydroxy-4-methylpiperidin-1-yl)pyrimidin-4-ylamino)-1-isopropyl-1H-pyrazolo[4,3-c]pyridin-3-yl)pyrrolidin-2-one]
11.4	6.4	3290	472	CC(n1nc(N2CC3(COC3)C2)c2cnc(Nc3ccnc(N4CCC(C)(O)CC4)n3)cc21)C(F)(F)F (centres unmarked) [Example 87, 4-Methyl-1-[4-[(3-[2-oxa-6-azaspiro[3.3]heptan-6-yl]-1-(1,1,1-trifluoropropan-2-yl)-1H-pyrazolo[4,3-c]pyridin-6-yl)amino]pyrimidin-2-yl]piperidin-4-ol]
46.9	26.5	9980	5260	CCC(C)n1nc(N2CCS(=N)(=O)CC2)c2cnc(Nc3ccnc(N4CCC(C)(O)CC4)n3)cc21 (centres unmarked) [Example 89, 4-[1-(sec-Butyl)-6-[[2-(4-hydroxy-4-methylpiperidin-1-yl)pyrimidin-4-yl]amino]-1H-pyrazolo[4,3-c]pyridin-3-yl]-1-imino-4-thiomorpholin-1-one]
9.5	3.8	1760	788	CCC(C)n1nc(N2CCNC(=O)C2)c2cnc(Nc3ccnc(N4CCC(C)(O)CC4)n3)cc21 (centres unmarked) [Example 92, 4-(1-sec-Butyl-6-(2-(4-hydroxy-4-methylpiperidin-1-yl)pyrimidin-4-ylamino)-1H-pyrazolo[4,3-c]pyridin-3-yl)piperazin-2-one]
17.2	4.6	1240	387	CC[C@@H](C)n1nc(N2CC3(COC3)C2)c2cnc(Nc3ccnc(OCC(C)(C)S(C)(=O)=O)n3)cc21 [Example 96, [1-((R)-sec-Butyl)-3-(2-oxa-6-azaspiro[3.3]hept-6-yl)-1H-pyrazolo[4,3-c]pyridin-6-yl]-[2-(2-methanesulfonyl-2-methylpropoxy)pyrimidin-4-yl]amine]
7.2	8.7	1260	1060	CC(C)n1nc(N2CCOCC2)c2cnc(Nc3ccnc(NCC(C)(C)S(C)(=O)=O)n3)cc21 [Example 100, N^4-(1-Isopropyl-3-morpholin-4-yl-1H-pyrazolo[4,3-c]pyridin-6-yl)-N^2-(2-methanesulfonyl-2-methylpropyl)pyrimidine-2,4-diamine]
1.6	2.1	232	57.8	CC(C)n1nc(N2CCCC2=O)c2cnc(Nc3ccnc(-c4cnn(S(=O)(=O)C5CC5)c4)n3)cc21 [Example 106, 1-(6-(2-(1-(Cyclopropylsulfonyl)-1H-pyrazol-4-yl)pyrimidin-4-ylamino)-1-isopropyl-1H-pyrazolo[4,3-c]pyridin-3-yl)pyrrolidin-2-one]
1.5	2	1640	386	CC(C)n1nc(NC2CCS(=O)(=O)C2)c2cnc(Nc3ccnc(-c4cnn(S(=O)(=O)C5CC5)c4)n3)cc21 (centres unmarked) [Example 107, 3-((6-((2-(1-(Cyclopropylsulfonyl)-1H-pyrazol-4-yl)pyrimidin-4-yl)amino)-1-isopropyl-1H-pyrazolo[4,3-c]pyridin-3-yl)amino)tetrahydrothiophene 1,1-dioxide]
